Where two headings read alike, the source gives them in different places.
Experiments:
CYP1A2 [1] = molecular target: T1, CYP1A2 (Homo sapiens, UniProt P05177); assay: biochemical
T1 construct: purchased Abcam ab211075
Procedure: CYP1A2 Inhibitor Assay Kit (Abcam; Cambridge, UK) was applied following the manufacturer’s description, where the inhibitory action of 0.000, 0.001, 0.010, 0.050, 0.10, 0.20, 0.50, 1.25, 3.0, 10, and 25 μM AOH concentrations were tested.
IC50 values were calculated by sigmoidal fitting (Hill1), using the Origin (version 2018, OriginLab Corporation, Northampton, MA, USA) software.

CYP3A4 = molecular target: T2, CYP3A4 (Homo sapiens, UniProt P08684); format: in vitro ADME; settings: 5 μM AOH; 120 min incubation; vs CYPnull
T2 construct: purchased Merck; host or cells: yeast (inferred from the description of the CYPnull control, 'processed identically')
Procedure: (§1) To test the potential biotransformation of AOH by CYPs, the changes in the concentrations of AOH were examined in the presence of CYP1A2, 2C9, 2C19, 2D6, or 3A4 enzymes. Samples (final volume: 200 μL) containing AOH (5 μM), glucose-6-phosphate (500 μM), nicotinamide adenine dinucleotide phosphate (NADP^+, 200 μM), and the enzymes (CypExpress Cytochrome P450 reagents: 15 mg/mL each; including both CYP and glucose-6-phosphate dehydrogenase enzymes) were incubated for 0, 30, 60, 90, and 120 min (700 rpm, 30 °C) in potassium phosphate buffer (0.05 M, pH 7.5). The reaction was stopped by the addition of ice-cold methanol (100 μL), then the samples were centrifuged (10 min, 14,000 g, room temperature). AOH content of the supernatants was directly analyzed by HPLC-FLD (see details in Section 2.7). As a control, CypExpress Control reagent (CYPnull; 15 mg/mL) was also applied, which is a permeabilized and stabilized dried yeast powder (produced using an empty vector) and processed identically to CypExpress Cytochrome P450 products.
(§2) In CYP experiments, AOH was quantified with the above-described HPLC system, except that a fluorescence detector (FP-920; Jasco, Tokyo, Japan) was applied. Samples (20 μL) were driven through a Phenomenex Security Guard (C18, 4.0 × 3.0 mm) precolumn (Phenomenex, Torrance, CA, USA) linked to a Kinetex EVO-C18 (250 × 4.6 mm, 5 μm; Phenomenex) analytical column with 1.0 mL/min flow rate, at room temperature. For the isocratic elution, a mobile phase with 1 mM phosphoric acid (pH 3.0) and acetonitrile (65:35 v/v%) was applied. AOH was detected at 455 nm (λex = 345 nm). Limit of detection (LOD) and limit of quantification (LOQ) were established as the lowest concentrations when the signal-to-noise ratios were three and ten, respectively. The major validation parameters of this HPLC-FLD method were the following: linearity (R^2 = 0.997, in the 100–1000 nM concentration range); LOD = 100 nM; LOQ = 200 nM; intraday precision = 2.9% (n = 7); accuracy = 3.4% (n = 7).

CYP1A2 [2] = molecular target: T1, CYP1A2; format: in vitro ADME; settings: 5 μM AOH
Procedure: as §1, §2

CYP2C19 = molecular target: T3, CYP2C19 (Homo sapiens, UniProt P33261); format: in vitro ADME; settings: 5 μM AOH; significant (p < 0.01) only after 120 min
T3 construct: purchased Merck; host or cells: yeast (inferred from the description of the CYPnull control, 'processed identically')
Procedure: as §1, §2

CYP2C9 = molecular target: T4, CYP2C9 (Homo sapiens, UniProt P11712); format: in vitro ADME; settings: 5 μM AOH; 120 min incubation; vs CYPnull
T4 construct: purchased Merck; host or cells: yeast (inferred from the description of the CYPnull control, 'processed identically')
Procedure: as §1, §2

CYP2D6 = molecular target: T5, CYP2D6 (Homo sapiens, UniProt P10635); format: in vitro ADME; settings: 5 μM AOH; 120 min incubation; vs CYPnull
T5 construct: purchased Merck; host or cells: yeast (inferred from the description of the CYPnull control, 'processed identically')
Procedure: as §1, §2

OATP1B1 = OATP1B1 (Homo sapiens, UniProt Q9Y6L6); format: cell-based; design: expressed in transfected cells; host or cells: A431; settings: 2, 5 or 10 µM AOH; 15 min; pH 5.5
Procedure: The A431 cell line overexpressing OATP1B1 or mock transfected control were trypsinized, and counted with automated cell counter (TC10, BIORAD, Hercules, CA, USA). The cells were washed with 1 mL buffer (pH 5.5; described above) and centrifuged for 5 min at 1500 g. After the supernatant was removed, 2 × 10^6 cells in 50 µL volume of the same buffer were handed out into separate Eppendorf tubes, then 50 µL of AOH solutions (diluted in buffer, pH 5.5) was added (final concentrations: 2, 5, or 10 µM). The cells were incubated for 15 min at 37 °C in shaking water bath. The reaction was stopped with 1 mL ice-cold PBS, after which the tubes were centrifuged for 5 min at 1500 g and 4 °C. The supernatant was removed, and the cells were washed with 1 mL ice-cold PBS, then the cell pellet was stored at −80 °C until analyses.
Before HPLC measurements, cell pellets were dissolved in 100 μL of 1 M NaOH solution with vigorous vortexing. After 15 min sonication, the solution was neutralized with 100 μL of 1 M HCl, then 200 μL acetonitrile was added. […] Thereafter, the supernatant was directly analyzed with HPLC-FLD (see details in Section 2.7).
To examine the OATP1B1-mediated uptake of AOH in A431 cells, our recently reported magnesium-sensitized HPLC-FLD method was applied. […] AOH was quantified using 345 nm and 455 nm excitation and emission wavelengths, respectively. […]

T1 sequence (P05177 whole entry): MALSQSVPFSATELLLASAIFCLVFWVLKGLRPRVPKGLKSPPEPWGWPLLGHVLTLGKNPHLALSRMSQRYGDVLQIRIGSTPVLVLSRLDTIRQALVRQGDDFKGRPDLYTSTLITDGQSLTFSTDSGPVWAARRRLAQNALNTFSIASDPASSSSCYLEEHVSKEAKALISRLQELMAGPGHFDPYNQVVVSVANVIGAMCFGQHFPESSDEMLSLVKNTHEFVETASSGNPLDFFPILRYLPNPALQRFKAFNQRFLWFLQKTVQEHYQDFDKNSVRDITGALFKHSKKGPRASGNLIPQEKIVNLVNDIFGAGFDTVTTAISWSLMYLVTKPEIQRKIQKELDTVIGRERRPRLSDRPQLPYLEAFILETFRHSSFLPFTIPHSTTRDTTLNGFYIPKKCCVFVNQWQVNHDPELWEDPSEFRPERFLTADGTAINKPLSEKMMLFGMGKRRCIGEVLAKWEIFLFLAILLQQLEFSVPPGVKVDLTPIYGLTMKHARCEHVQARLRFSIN
T4 sequence (P11712 whole entry): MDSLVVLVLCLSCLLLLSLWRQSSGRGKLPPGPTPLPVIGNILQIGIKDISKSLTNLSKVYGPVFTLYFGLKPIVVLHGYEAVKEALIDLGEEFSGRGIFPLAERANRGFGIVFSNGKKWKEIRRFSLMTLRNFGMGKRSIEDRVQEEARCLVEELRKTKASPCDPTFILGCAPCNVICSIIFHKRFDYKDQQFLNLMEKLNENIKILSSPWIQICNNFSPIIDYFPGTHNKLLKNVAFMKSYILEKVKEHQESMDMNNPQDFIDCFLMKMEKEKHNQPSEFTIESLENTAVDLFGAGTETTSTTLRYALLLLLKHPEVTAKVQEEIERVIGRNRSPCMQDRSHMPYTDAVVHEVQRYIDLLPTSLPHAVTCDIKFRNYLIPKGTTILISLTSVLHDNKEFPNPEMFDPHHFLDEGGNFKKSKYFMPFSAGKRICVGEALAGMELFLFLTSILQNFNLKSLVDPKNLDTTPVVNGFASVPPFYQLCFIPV
T3 sequence (P33261 whole entry): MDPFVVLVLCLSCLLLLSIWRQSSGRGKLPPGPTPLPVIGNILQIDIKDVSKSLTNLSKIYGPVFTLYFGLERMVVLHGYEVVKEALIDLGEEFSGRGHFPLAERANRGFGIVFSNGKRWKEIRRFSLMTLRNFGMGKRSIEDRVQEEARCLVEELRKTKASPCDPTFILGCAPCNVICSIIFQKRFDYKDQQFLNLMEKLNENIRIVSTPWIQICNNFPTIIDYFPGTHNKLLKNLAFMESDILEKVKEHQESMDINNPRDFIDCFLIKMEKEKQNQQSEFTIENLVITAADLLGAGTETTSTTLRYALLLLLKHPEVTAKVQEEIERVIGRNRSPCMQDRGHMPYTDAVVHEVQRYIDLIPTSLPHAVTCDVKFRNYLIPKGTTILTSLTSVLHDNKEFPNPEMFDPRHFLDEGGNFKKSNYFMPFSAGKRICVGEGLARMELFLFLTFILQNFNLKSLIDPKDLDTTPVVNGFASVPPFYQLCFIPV
T5 sequence (P10635 whole entry): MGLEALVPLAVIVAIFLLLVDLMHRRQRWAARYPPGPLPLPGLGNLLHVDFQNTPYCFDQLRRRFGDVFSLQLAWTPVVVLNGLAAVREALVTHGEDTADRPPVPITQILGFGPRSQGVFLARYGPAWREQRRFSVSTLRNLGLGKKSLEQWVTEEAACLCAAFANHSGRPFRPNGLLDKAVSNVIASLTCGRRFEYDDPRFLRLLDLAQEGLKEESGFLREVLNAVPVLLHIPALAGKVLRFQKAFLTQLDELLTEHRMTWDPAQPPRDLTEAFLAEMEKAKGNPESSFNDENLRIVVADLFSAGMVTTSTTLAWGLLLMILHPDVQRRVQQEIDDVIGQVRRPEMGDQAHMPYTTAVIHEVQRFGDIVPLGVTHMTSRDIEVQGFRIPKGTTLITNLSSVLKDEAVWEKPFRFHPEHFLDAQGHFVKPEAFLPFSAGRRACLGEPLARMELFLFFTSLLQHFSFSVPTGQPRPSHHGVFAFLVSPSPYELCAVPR
T2 sequence (P08684 whole entry): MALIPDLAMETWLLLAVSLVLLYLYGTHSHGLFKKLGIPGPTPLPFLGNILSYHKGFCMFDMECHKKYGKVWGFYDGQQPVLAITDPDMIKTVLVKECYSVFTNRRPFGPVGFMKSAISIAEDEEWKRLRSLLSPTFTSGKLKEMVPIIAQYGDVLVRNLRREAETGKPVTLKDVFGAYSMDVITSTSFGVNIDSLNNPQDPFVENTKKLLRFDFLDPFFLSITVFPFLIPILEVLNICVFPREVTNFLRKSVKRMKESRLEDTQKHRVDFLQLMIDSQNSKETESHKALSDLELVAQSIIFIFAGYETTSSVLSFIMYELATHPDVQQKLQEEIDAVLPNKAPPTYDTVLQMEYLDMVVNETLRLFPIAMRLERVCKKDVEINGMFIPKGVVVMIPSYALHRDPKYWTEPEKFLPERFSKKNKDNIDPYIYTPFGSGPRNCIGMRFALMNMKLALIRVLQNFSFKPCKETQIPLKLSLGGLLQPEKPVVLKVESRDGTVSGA
Chain of OATP1B1 (Q9Y6L6 whole entry): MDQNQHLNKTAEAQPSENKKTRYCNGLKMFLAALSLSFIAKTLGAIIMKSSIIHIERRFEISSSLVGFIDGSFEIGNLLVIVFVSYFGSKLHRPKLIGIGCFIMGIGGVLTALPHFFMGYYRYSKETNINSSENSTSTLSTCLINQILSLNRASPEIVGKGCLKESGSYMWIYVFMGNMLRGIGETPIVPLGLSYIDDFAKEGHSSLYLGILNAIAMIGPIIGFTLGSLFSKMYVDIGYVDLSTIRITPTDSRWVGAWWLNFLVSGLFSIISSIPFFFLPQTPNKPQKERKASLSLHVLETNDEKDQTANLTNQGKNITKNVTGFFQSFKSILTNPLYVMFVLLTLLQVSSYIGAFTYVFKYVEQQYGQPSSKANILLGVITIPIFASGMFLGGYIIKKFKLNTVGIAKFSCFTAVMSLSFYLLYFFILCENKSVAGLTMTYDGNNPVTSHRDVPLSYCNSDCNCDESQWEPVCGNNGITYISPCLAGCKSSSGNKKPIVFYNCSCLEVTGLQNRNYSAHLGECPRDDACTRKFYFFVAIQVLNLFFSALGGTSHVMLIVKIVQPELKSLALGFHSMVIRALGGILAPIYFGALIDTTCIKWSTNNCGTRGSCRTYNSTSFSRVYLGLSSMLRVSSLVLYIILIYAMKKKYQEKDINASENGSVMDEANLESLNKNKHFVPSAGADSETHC

## Cc1cc(O)cc2oc(=O)c3c(O)cc(O)cc3c12 [AOH, Alternariol]
CYP1A2 [1]; 0.05 μM AOH, p < 0.01
  CYP1A2 inhibition at 0.05 μM: statistically significant
CYP1A2 [1]; 10 μM AOH
  CYP1A2 inhibition at 10 μM: close to complete
CYP1A2 [1]; fluorometric kit, AOH 0-25 μM, read-out: IC50, CYP1A2 inhibition
  IC50: 150 nM
CYP3A4
  changes in AOH levels in the presence of CYP3A4: no relevant changes
CYP1A2 [2]; 60 min incubation
  depletion of AOH by CYP1A2: 16%
CYP1A2 [2]; 120 min incubation
  depletion of AOH by CYP1A2: 25%
CYP2C19
  changes in AOH levels in the presence of CYP2C19: slight decrease
CYP2C9
  changes in AOH levels in the presence of CYP2C9: no relevant changes
CYP2D6
  changes in AOH levels in the presence of CYP2D6: no relevant changes
OATP1B1
  cellular AOH levels in OATP1B1 expressing vs mock cells: higher cellular AOH levels

Reference: publication PMC9862037, “Interactions of Mycotoxin Alternariol with Cytochrome P450 Enzymes and OATP Transporters” (Metabolites, 2022)
